# Measured values: ChEMBL document CHEMBL3046099, “Effect of reduced risk pesticides on greenhouse vegetable arthropod biological control agents” (2011)
# Columns and labels:
# [1] = system: Eretmocerus eremicus; test: Toxicity in Eretmocerus eremicus infested green bean leaves assessed as mortality at 2 times of recommended rate at 48 hr by leaf dip method (reference value: 10%); assay type: functional
# [2] = system: Eretmocerus eremicus; test: Toxicity in Eretmocerus eremicus infested green bean leaves assessed as mortality at recommended rate at 48 hr by leaf dip method (reference value: 10%); assay type: functional
# [3] = system: Amblyseius swirskii; test: Toxicity in Typhlodromips swirskii infested green bean leaves assessed as mortality at recommended rate at 48 hr by leaf dip method (reference value: 10%); assay type: functional
# [4] = system: Amblyseius swirskii; test: Toxicity in Typhlodromips swirskii infested green bean leaves assessed as mortality at 2 times recommended rate at 48 hr by leaf dip method (reference value: 10%); assay type: functional
# [5] = system: Orius insidiosus; test: Toxicity in Orius insidiosus infested green bean leaves assessed as mortality at 2 times recommended rate at 48 hr by leaf dip method (reference value: 20%); assay type: functional
# [6] = system: Orius insidiosus; test: Toxicity in Orius insidiosus infested green bean leaves assessed as mortality at recommended rate at 48 hr by leaf dip method (reference value: 20%); assay type: functional
# [7] = system: Eretmocerus eremicus; test: Toxicity in Eretmocerus eremicus infested cucumber leaves assessed as mortality at recommended rate after 15 days under green house condition (reference value: 30%); assay type: functional, organism-based
Compound,mortality [1] [%],mortality [2] [%],mortality [3] [%],mortality [4] [%],mortality [5] [%],mortality [6] [%],mortality [7] [%]
O=C([O-])O.[K+] [POTASSIUM BICARBONATE],2.5,2.5,19.8,8.8,–,–,–
CCCCC(C#N)(Cn1cncn1)c1ccc(Cl)cc1 (stereo not given) [MYCLOBUTANIL],5.3,5,7.5,17,–,–,–
CNC(=O)c1cc(Cl)cc(C)c1NC(=O)c1cc(Br)nn1-c1ncccc1Cl [CHLORANTRANILIPROLE],0,0,15.8,14.3,16,8,–
METAFLUMIZONE,0,0,14.5,8.8,–,69,4.4
